≈ marks a conversion by molar mass, not a printed value. Bridge positions count the residues as written; N and C are the ends. Square brackets hold non-standard residues; d marks the D form. Peptide text beside a SMILES is read from it. Orn = NCCC[C@H](N)C(=O)O
Columns and labels:
[1] = system: MRSA 6313; assay type: cell-based, Staphylococcus aureus; settings: 6313, 24 h
Procedure: (§1) Assays were performed by Trideum Biosciences (Frederick, MD, USA). Isolates were thawed from −80 °C storage and sub-cultured on trypticase soy agar plates at 37 °C prior to experimentation. A single colony was aseptically picked from the agar plate and released in 30 mL trypticase soy broth and incubated overnight at 37 °C incubator. Following which the bacterial culture was diluted to approximately 10^6 colony forming units (CFU)/mL using 2X cation adjusted Mueller–Hinton broth and added to the dAMP solutions (0, 2, 4, 8, 16, 32, 64, and 128 μg/mL) which had been formulated in water at 256 μg/mL and then serially diluted in media on 96-well pates. For fungal evaluation, potato dextrose broth and potato dextrose agar plates were used. The treated cultures were then incubated for 24 h at 37 °C and pathogen growth was measured by absorbance at 600 nm. Four replicas were included for each dAMP concentration. Each MIC was assigned to the lowest test agent concentration resulting in at least three out of four wells showing no growth based on an optical density (OD) reading of <0.1.

[2] = system: S. aureus 6061; assay type: cell-based, Staphylococcus aureus; settings: 6061, 24 h
Procedure: as §1

[3] = system: MRSA ATCC 33592; assay type: cell-based, Staphylococcus aureus; settings: ATCC 33592, 24 h
Procedure: as §1

[4] = system: S. aureus B-767; assay type: cell-based, Staphylococcus aureus; settings: B-767, 24 h
Procedure: as §1

[5] = system: MRSA 6381; assay type: cell-based, Staphylococcus aureus; settings: 6381, 24 h
Procedure: as §1

[6] = system: A. baumannii ATCC 17978; assay type: cell-based, Acinetobacter baumannii; settings: ATCC 17978, 24 h
Procedure: as §1

[7] = system: A. baumannii 6838; assay type: cell-based, Acinetobacter baumannii; settings: 6838, 24 h
Procedure: as §1

[8] = system: A. baumannii 6043; assay type: cell-based, Acinetobacter baumannii; settings: 6043, 24 h
Procedure: as §1

[9] = system: S. aureus 49525 (Xen36 luciferase); assay type: cell-based, Staphylococcus aureus; settings: 8 μg/mL, 60 min incubation, bioluminescence, triplicates from two independent experiments
Text: (§2) Fungal and bacterial strains were obtained from American Type Culture Collection (ATCC, Manassas, VA, USA) or the clinical isolate collection at Trideum Biosciences (Frederick, MD, USA) and are presented in Table 1 and Table 2, respectively. Bioluminescence strains of P. aeruginosa 19660, transfected with the Xen5 luciferase gene, and S. aureus ATCC R 49525TM (Wright), transfected with the Xen36 luciferase gene, were obtained from Perkin Elmer (Waltham, MA, USA).
(§3) Real-time killing of bacterial cells, P. aeruginosa or S. aureus, and mammalian cytotoxicity to assess dAMP off-target toxicity was evaluated using bioluminescent cells. The L929 fibroblast cells (ATCC, Manassas, VA, USA) were made bioluminescent by transfection with a luciferase gene. Cells (1 × 10^4 cells, 100 μL) were plated in 96-well black-walled plates and the candidate dAMPs were 2-fold serially diluted from specified concentrations in growth medium supplemented with 150 μg/mL D-luciferin. Each concentration was performed in triplicate, with the final volume being 200 μL. Imaging was performed at select times after the addition of the dAMP, and compared to concurrently run vehicle-control, using an IVIS Lumina imaging system (Caliper Life Sciences, Inc., Hopkinton, MA, USA). For imaging, the 96-well plate was positioned on the stage (12.5-cm field of view), with an open emission filter, binning of 4, and f-stop 1 and a 1-min exposure time. Monitoring bioluminescence allows assessment of the kinetics of cellular viability as there is a tight correlation between the bioluminescent signal and cell viability. Data analysis was performed using the Living Image software program (version 4.3, Caliper Life Sciences, Inc., Hopkinton, MA, USA).
(§4) Figure 3 RP553, RP556, RP557 rapidly destroy P. aeruginosa and S. aureus. The bioluminescence of viable P. aeruginosa 19,660 and S. aureus 49,525 cells was quantitated in real time with an IVIS Lumina bioimaging system. Data represent the mean ± SE of triplicate replicates from two independent experiments. For some points, the error bars are shorter than the height of the symbols.

[10] = system: K. pneumonia 6069; assay type: cell-based, Klebsiella pneumoniae; settings: 24 h
Procedure: as §1

[11] = system: K. pneumonia ATCC 10031; assay type: cell-based, Klebsiella pneumoniae; settings: ATCC 10031, 24 h
Procedure: as §1

[12] = system: Aspergillus fumigatus 9648; assay type: cell-based; settings: 9648, 24 h
Procedure: as §1

[13] = system: Aspergillus flavus MYA-3651; assay type: cell-based; settings: 24 h
Procedure: as §1

[14] = system: Candida parapsilosis Y-1761; assay type: cell-based; settings: Y-1761, 24 h
Procedure: as §1

[15] = system: S. epidermis ATCC 51625; assay type: cell-based; settings: ATCC 51625, 24 h
Procedure: as §1

[16] = system: Candida krusei Y-27825; assay type: cell-based; settings: Y-27825, 24 h
Procedure: as §1

[17] = system: Fusarium solani NRRL 28548; assay type: cell-based; settings: NRRL 28548, 24 h
Procedure: as §1

[18] = system: Candida albicans Y-6359; assay type: cell-based; settings: Y-6359, 24 h
Procedure: as §1

[19] = system: Mucor circinelloides NRRL 3631; assay type: cell-based; settings: NRRL 3631, 24 h
Procedure: as §1

[20] = system: Candida albicans Y-326; assay type: cell-based; settings: Y-326, 24 h
Procedure: as §1

[21] = system: Aspergillus flavus MYA-1004; assay type: cell-based; settings: 24 h
Procedure: as §1

[22] = system: E. cloacae 6053; assay type: cell-based; settings: 6053, 24 h
Procedure: as §1

[23] = system: E. cloacae 6054; assay type: cell-based; settings: 6054, 24 h
Procedure: as §1

[24] = system: Aspergillus fumigatus 9651; assay type: cell-based; settings: 9651, 24 h
Procedure: as §1

[25] = system: Absidia corymbifera NRRL 6251; assay type: cell-based; settings: NRRL 6251, 24 h
Procedure: as §1

[26] = system: Candida krusei Y-27803; assay type: cell-based; settings: Y-27803, 24 h
Procedure: as §1

[27] = system: Candida parapsilosis Y-1763; assay type: cell-based; settings: Y-1763, 24 h
Procedure: as §1

[28] = system: vulvovaginal candidiasis infection; settings: rodent vulvovaginal candidiasis, after three days of daily treatment; cited from earlier work
Text: The dAMPs RP504, RP554 and RP557 were thus tested for their ability to treat a rodent vulvovaginal candidiasis infection. […] A daily dose with a 2% concentration lowered the CFU/sample by more than 4 logs compared to the con ...

[29] = system: P. aeruginosa 19660 (Xen5 luciferase); assay: Bioluminescent time-kill assay; assay type: cell-based, Pseudomonas aeruginosa; settings: 8 μg/mL, 60 min, bioluminescence, triplicates from two independent experiments
Text: as §2, §3, §4

[30] = system: P. aeruginosa ATCC 27853; assay type: cell-based, Pseudomonas aeruginosa; settings: ATCC 27853, 24 h
Procedure: as §1

[31] = system: P. aeruginosa 6186; assay type: cell-based, Pseudomonas aeruginosa; settings: 6186, 24 h
Procedure: as §1

[32] = system: P. aeruginosa ATCC 19660; assay type: cell-based, Pseudomonas aeruginosa; settings: ATCC 19660, 24 h
Procedure: as §1

For `CC[C@H](C)[C@H](NC(=O)CNC(=O)CNC(=O)[C@@H]1CSSC[C@H](NC(=O)CNC(=O)CNC(=O)[C@H](CC(C)C)NC(=O)[C@H](CCCN)NC(=O)[C@H](C)NC(=O)[C@H](CCCN)NC(=O)[C@@H](NC(=O)[C@H](CCCN)NC(=O)[C@@H](N)Cc2ccccc2)[C@@H](C)CC)C(=O)N[C@@H](CC(C)C)C(=O)NCC(=O)N[C@@H](CCCN)C(=O)N[C@@H](Cc2ccccc2)C(=O)N1)C(=O)N[C@@H](CCCN)C(=O)N[C@@H](C)C(=O)N[C@@H](CCCN)C(=O)N[C@@H](CC(C)C)C(=O)N[C@@H](C)C(=O)N[C@@H](Cc1ccccc1)C(N)=O` [RP504] (H-F[Orn]I[Orn]A[Orn]LGGCLG[Orn]FCGGI[Orn]A[Orn]LAF-NH2; disulfide 10-15), the “MIC against MRSA 6313” value [1] was 64 µg/mL (≈ 26.5 µM), the “MIC against S. aureus 6061” value [2] was 64 µg/mL (≈ 26.5 µM) and the “MIC against MRSA ATCC 33592” value [3] was 32 µg/mL (≈ 13.3 µM). The “MIC against S. aureus B-767” value [4] was 32 µg/mL (≈ 13.3 µM), the “MIC against MRSA 6381” value [5] was 64 µg/mL (≈ 26.5 µM) and the “MIC against A. baumannii ATCC 17978” value [6] was 32 µg/mL (≈ 13.3 µM). The “MIC against A. baumannii 6838” value [7] was 64 µg/mL (≈ 26.5 µM), the “MIC against A. baumannii 6043” value [8] was 32 µg/mL (≈ 13.3 µM) and the S. aureus killing [9] was 13%. For the same compound, the “MIC against K. pneumonia 6069” value [10] was 32 µg/mL (≈ 13.3 µM), the “MIC against K. pneumonia ATCC 10031” value [11] was 32 µg/mL (≈ 13.3 µM) and the “MIC against Aspergillus fumigatus 9648” value [12] was greater than 128 µg/mL. The “MIC against Aspergillus flavus MYA-3651” value [13] was greater than 128 µg/mL, the “MIC against Candida parapsilosis Y-1761” value [14] was 8 µg/mL (≈ 3.32 µM) and the “MIC against S. epidermis ATCC 51625” value [15] was 16 µg/mL (≈ 6.63 µM). For the same compound, the “MIC against Candida krusei Y-27825” value [16] was 8 µg/mL (≈ 3.32 µM), the “MIC against Fusarium solani NRRL 28548” value [17] was 2 µg/mL (≈ 0.829 µM) and the “MIC against Candida albicans Y-6359” value [18] was 4 µg/mL (≈ 1.66 µM). For the same compound, the “MIC against Mucor circinelloides NRRL 3631” value [19] was greater than 128 µg/mL, the “MIC against Candida albicans Y-326” value [20] was 8 µg/mL (≈ 3.32 µM) and the “MIC against Aspergillus flavus MYA-1004” value [21] was greater than 128 µg/mL. For the same compound, the “MIC against E. cloacae 6053” value [22] was 32 µg/mL (≈ 13.3 µM), the “MIC against E. cloacae 6054” value [23] was 64 µg/mL (≈ 26.5 µM) and the “MIC against Aspergillus fumigatus 9651” value [24] was greater than 128 µg/mL. For the same compound, the “MIC against Absidia corymbifera NRRL 6251” value [25] was 8 µg/mL (≈ 3.32 µM), the “MIC against Candida krusei Y-27803” value [26] was 8 µg/mL (≈ 3.32 µM) and the “MIC against Candida parapsilosis Y-1763” value [27] was 2 µg/mL (≈ 0.829 µM). The “reduction of CFU/tissue sample” value [28] was no less than 2.5 logs, the P. aeruginosa destroyed [29] was 25% and the “MIC against P. aeruginosa ATCC 27853” value [30] was 16 µg/mL (≈ 6.63 µM). For the same compound, the “MIC against P. aeruginosa 6186” value [31] was 16 µg/mL (≈ 6.63 µM) and the “MIC against P. aeruginosa ATCC 19660” value [32] was 16 µg/mL (≈ 6.63 µM).

From paper PMC7559897, “Designed Antimicrobial Peptides Against Trauma-Related Cutaneous Invasive Fungal Wound Infections” (Journal of Fungi, 2020)
